Results as given in patent US6677460B1, “Aromatic carboxylic acid bicyclic sulfur compounds” (Idemitsu Kosan Company, Limited, priority 1993, dated 2004).

What was measured:
velvetleaf [1] = assay: Upland soil treatment test (3); assay type: in vivo; conditions: 20th day after treatment; note: ranges in brackets are in %
Procedure: (§1) 90 Parts by weight of the above carrier and 10 parts by weight of each of Compounds obtained in the above Preparation Examples were uniformly pulverized and mixed to obtain herbicides. Further, for Herbicide Comparative Examples, comparative herbicides were prepared by uniformly pulverizing and mixing 90 parts by weight of the above carrier and 10 parts by weight of each of the following Compounds x, y, A, B and C.
(§2) (3) Biological Test (Upland Soil Treatment Test, Herbicide Examples 3 and 4 and Herbicide Comparative Examples 3 and 4)
(§3) Seeds of weeds such as large crabgrass, barnyardgrass, green foxtail, cocklebur, velvetleaf and slender amaranth and seeds of corn, wheat and barley were sown in 1/5,000-are Wagner pots filled with upland soil, and covered with upland soil. Then, a predetermined amount of the herbicide prepared in the above (1) was suspended in water and uniformly sprayed onto the soil surface. Thereafter, the plants were grown in the greenhouse, and on 20th day after the treatment, the herbicide was evaluated for herbicidal efficacy.
(§4) The herbicidal efficacy and the phytotoxicity to crops are shown on the basis of the ratings described in (2) Foliar treatment test.

barnyard grass [2] = assay: Upland soil treatment test (3); assay type: in vivo; conditions: 20th day after treatment; note: ranges in brackets are in %
Procedure: as §1, §2, §3, §4

green foxtail [3] = assay: Upland soil treatment test (3); assay type: in vivo; conditions: 20th day after treatment; note: ranges in brackets are in %
Procedure: as §1, §2, §3, §4

slender amaranth [4] = assay: Upland soil treatment test (3); assay type: in vivo; conditions: 20th day after treatment; note: ranges in brackets are in %
Procedure: as §1, §2, §3, §4

large crabgrass [5] = assay: Upland soil treatment test (3); assay type: in vivo; conditions: 20th day after treatment; note: ranges in brackets are in %
Procedure: as §1, §2, §3, §4

cocklebur [6] = assay: Upland soil treatment test (3); assay type: in vivo; conditions: 20th day after treatment; note: ranges in brackets are in %
Procedure: as §1, §2, §3, §4

velvetleaf [7] = assay: Upland soil treatment test (5); assay type: in vivo; conditions: dosage 100 g a.i./hectare, 20th day after treatment; note: ranges in brackets are in %
Procedure: as §1
(§5) (5) Biological Test (Upland Soil Treatment Test, Herbicide Examples 10-26 and Comparative Example 9)
as §3, with “barnyard grass,” for “barnyardgrass,”
(§6) The dosage of each herbicide is indicated as an amount of the active ingredient per hectare. Further, air-dried weight were measured, and herbicidal efficacy and the pytotoxicity to corn are shown on the basis of the ratings described below.

barnyard grass [8] = assay: Upland soil treatment test (5); assay type: in vivo; conditions: dosage 100 g a.i./hectare, 20th day after treatment; note: ranges in brackets are in %
Procedure: as §1, §5
as §3, with “barnyard grass,” for “barnyardgrass,”
as §6

green foxtail [9] = assay: Upland soil treatment test (5); assay type: in vivo; conditions: dosage 100 g a.i./hectare, 20th day after treatment; note: ranges in brackets are in %
Procedure: as §1, §5
as §3, with “barnyard grass,” for “barnyardgrass,”
as §6

slender amaranth [10] = assay: Upland soil treatment test (5); assay type: in vivo; conditions: dosage 100 g a.i./hectare, 20th day after treatment; note: ranges in brackets are in %
Procedure: as §1, §5
as §3, with “barnyard grass,” for “barnyardgrass,”
as §6

large crabgrass [11] = assay: Upland soil treatment test (5); assay type: in vivo; conditions: dosage 100 g a.i./hectare, 20th day after treatment; note: ranges in brackets are in %
Procedure: as §1, §5
as §3, with “barnyard grass,” for “barnyardgrass,”
as §6

cocklebur [12] = assay: Upland soil treatment test (5); assay type: in vivo; conditions: dosage 100 g a.i./hectare, 20th day after treatment; note: ranges in brackets are in %
Procedure: as §1, §5
as §3, with “barnyard grass,” for “barnyardgrass,”
as §6

velvetleaf [13] = assay: Foliar treatment test (2); assay type: in vivo; conditions: 20th day after treatment; note: ranges in brackets are in %
Procedure: as §1
(§7) (2) Biological Test (Foliar Treatment Test, Herbicide Examples 1 and 2 and Herbicide Comparative Examples 1 and 2)
as §3, with “barnyard grass,” for “barnyardgrass,”, “The seeds were grown in a greenhouse, and at the stage of 1˜2 leaves of these plants,” for “Then,”, “leaf and stalk portions at a rate of 200 liter/10 are.” for “the soil surface.”
(§8) The herbicidal efficacy and phytotoxcity to crops were shown on the basis of the following ratings.
(§9) The ratio of remaining plant weight to non-treated was determined on the basis of the ratio of remaining plant weight to non-treated=(remaining plant weight in treated plot/remaining plant weight in non-treated plot)×100. This is also applicable to biological tests hereinafter.

barnyard grass [14] = assay: Foliar treatment test (2); assay type: in vivo; conditions: 20th day after treatment; note: ranges in brackets are in %
Procedure: as §1, §7
as §3, with “barnyard grass,” for “barnyardgrass,”, “The seeds were grown in a greenhouse, and at the stage of 1˜2 leaves of these plants,” for “Then,”, “leaf and stalk portions at a rate of 200 liter/10 are.” for “the soil surface.”
as §8, §9

green foxtail [15] = assay: Foliar treatment test (2); assay type: in vivo; conditions: 20th day after treatment; note: ranges in brackets are in %
Procedure: as §1, §7
as §3, with “barnyard grass,” for “barnyardgrass,”, “The seeds were grown in a greenhouse, and at the stage of 1˜2 leaves of these plants,” for “Then,”, “leaf and stalk portions at a rate of 200 liter/10 are.” for “the soil surface.”
as §8, §9

slender amaranth [16] = assay: Foliar treatment test (2); assay type: in vivo; conditions: 20th day after treatment; note: ranges in brackets are in %
Procedure: as §1, §7
as §3, with “barnyard grass,” for “barnyardgrass,”, “The seeds were grown in a greenhouse, and at the stage of 1˜2 leaves of these plants,” for “Then,”, “leaf and stalk portions at a rate of 200 liter/10 are.” for “the soil surface.”
as §8, §9

large crabgrass [17] = assay: Foliar treatment test (2); assay type: in vivo; conditions: 20th day after treatment; note: ranges in brackets are in %
Procedure: as §1, §7
as §3, with “barnyard grass,” for “barnyardgrass,”, “The seeds were grown in a greenhouse, and at the stage of 1˜2 leaves of these plants,” for “Then,”, “leaf and stalk portions at a rate of 200 liter/10 are.” for “the soil surface.”
as §8, §9

cocklebur [18] = assay: Foliar treatment test (2); assay type: in vivo; conditions: 20th day after treatment; note: ranges in brackets are in %
Procedure: as §1, §7
as §3, with “barnyard grass,” for “barnyardgrass,”, “The seeds were grown in a greenhouse, and at the stage of 1˜2 leaves of these plants,” for “Then,”, “leaf and stalk portions at a rate of 200 liter/10 are.” for “the soil surface.”
as §8, §9

corn = assay: Upland soil treatment test (5), phytotoxicity; assay type: in vivo; conditions: dosage 100 g a.i./hectare, 20th day after treatment
Procedure: as §1, §5
as §3, with “barnyard grass,” for “barnyardgrass,”
as §6

Structure (SMILES): CCn1ncc(C(=O)c2cc(C)c3c(c2C)C(C)(C)CCS3(=O)=O)c1O [Compound 1, 4,4,5,8-tetramethyl-6-(1-ethyl-5-hydroxypyrazol-4-yl)carbonyl-thiochroman-1,1-dioxide]
- Herbicidal Efficacy velvetleaf (velvetleaf [1]; dosage 3 g a.i./are): 5 (0)
- Herbicidal Efficacy velvetleaf (velvetleaf [1]; dosage 10 g a.i./are): 5 (0)
- Herbicidal Efficacy barnyard grass (barnyard grass [2]; dosage 3 g a.i./are): 5 (0)
- Herbicidal Efficacy barnyard grass (barnyard grass [2]; dosage 10 g a.i./are): 5 (0)
- Herbicidal Efficacy green foxtail (green foxtail [3]; dosage 3 g a.i./are): 5 (0)
- Herbicidal Efficacy green foxtail (green foxtail [3]; dosage 10 g a.i./are): 5 (0)
- Herbicidal Efficacy slender amaranth (slender amaranth [4]; dosage 3 g a.i./are): 5 (0)
- Herbicidal Efficacy slender amaranth (slender amaranth [4]; dosage 10 g a.i./are): 5 (0)
- Herbicidal Efficacy large crabgrass (large crabgrass [5]; dosage 3 g a.i./are): 5 (0)
- Herbicidal Efficacy large crabgrass (large crabgrass [5]; dosage 10 g a.i./are): 5 (0)
- Herbicidal Efficacy cocklebur (cocklebur [6]; dosage 3 g a.i./are): 5 (0)
- Herbicidal Efficacy cocklebur (cocklebur [6]; dosage 10 g a.i./are): 5 (0)
- Herbicidal Efficacy velvetleaf (velvetleaf [7]): 5 (0)
- Herbicidal Efficacy barnyard grass (barnyard grass [8]): 5 (0)
- Herbicidal Efficacy green foxtail (green foxtail [9]): 5 (0)
- Herbicidal Efficacy slender amaranth (slender amaranth [10]): 5 (0)
- Herbicidal Efficacy large crabgrass (large crabgrass [11]): 5 (0)
- Herbicidal Efficacy cocklebur (cocklebur [12]): 5 (0)
- Herbicidal Efficacy velvetleaf (velvetleaf [13]; dosage 3 g a.i./are): 5 (0)
- Herbicidal Efficacy velvetleaf (velvetleaf [13]; dosage 10 g a.i./are): 5 (0)
- Herbicidal Efficacy barnyard grass (barnyard grass [14]; dosage 3 g a.i./are): 5 (0)
- Herbicidal Efficacy barnyard grass (barnyard grass [14]; dosage 10 g a.i./are): 5 (0)
- Herbicidal Efficacy green foxtail (green foxtail [15]; dosage 3 g a.i./are): 5 (0)
- Herbicidal Efficacy green foxtail (green foxtail [15]; dosage 10 g a.i./are): 5 (0)
- Herbicidal Efficacy slender amaranth (slender amaranth [16]; dosage 3 g a.i./are): 5 (0)
- Herbicidal Efficacy slender amaranth (slender amaranth [16]; dosage 10 g a.i./are): 5 (0)
- Herbicidal Efficacy large crabgrass (large crabgrass [17]; dosage 3 g a.i./are): 5 (0)
- Herbicidal Efficacy large crabgrass (large crabgrass [17]; dosage 10 g a.i./are): 5 (0)
- Herbicidal Efficacy cocklebur (cocklebur [18]; dosage 3 g a.i./are): 5 (0)
- Herbicidal Efficacy cocklebur (cocklebur [18]; dosage 10 g a.i./are): 5 (0)
- melting point: 208.8 to 209.3 °C
- Phyto-toxicity to corn (corn): 0 (100)
